Like-named read-outs stand apart in the source and are kept apart here.
How the values were obtained:
IGROV1 = experiment: NCI 60 five-dose screen IGROV1; assay type: cell-based; details: Homo sapiens, IGROV-1, five-dose
RXF 393 = experiment: NCI 60 five-dose screen RXF 393; assay type: cell-based; details: Homo sapiens, five-dose
HS 578T = experiment: NCI 60 five-dose screen HS 578T; assay type: cell-based; details: Homo sapiens, five-dose
OVCAR-5 = experiment: NCI 60 five-dose screen OVCAR-5; assay type: cell-based; details: Homo sapiens, five-dose
MOLT-4 = experiment: NCI 60 five-dose screen MOLT-4; assay type: cell-based; details: Homo sapiens, five-dose
MDA-MB-231/ATCC = experiment: NCI 60 five-dose screen MDA-MB-231/ATCC; assay type: cell-based; details: Homo sapiens, five-dose
DU-145 = experiment: NCI 60 five-dose screen DU-145; assay type: cell-based; details: Homo sapiens, five-dose
HOP-62 = experiment: NCI 60 five-dose screen HOP-62; assay type: cell-based; details: Homo sapiens, five-dose
M14 = experiment: NCI 60 five-dose screen M14; assay type: cell-based; details: Homo sapiens, five-dose
UACC-257 = experiment: NCI 60 five-dose screen UACC-257; assay type: cell-based; details: Homo sapiens, five-dose
MALME-3M = experiment: NCI 60 five-dose screen MALME-3M; assay type: cell-based; details: Homo sapiens, MALME-3M, five-dose
HCT-116 = experiment: NCI 60 five-dose screen HCT-116; assay type: cell-based; details: Homo sapiens, five-dose
SR = experiment: NCI 60 five-dose screen SR; assay type: cell-based, human; details: five-dose
SF-539 = experiment: NCI 60 five-dose screen SF-539; assay type: cell-based; details: Homo sapiens, five-dose
NCI-H23 = experiment: NCI 60 five-dose screen NCI-H23; assay type: cell-based; details: Homo sapiens, five-dose
TK-10 = experiment: NCI 60 five-dose screen TK-10; assay type: cell-based; details: Homo sapiens, five-dose
UACC-62 = experiment: NCI 60 five-dose screen UACC-62; assay type: cell-based; details: Homo sapiens, five-dose
KM12 = experiment: NCI 60 five-dose screen KM12; assay type: cell-based; details: Homo sapiens, five-dose
HCC-2998 = experiment: NCI 60 five-dose screen HCC-2998; assay type: cell-based; details: Homo sapiens, five-dose
SK-MEL-28 = experiment: NCI 60 five-dose screen SK-MEL-28; assay type: cell-based; details: Homo sapiens, five-dose
SNB-19 = experiment: NCI 60 five-dose screen SNB-19; assay type: cell-based; details: Homo sapiens, five-dose
[1] = system: MV-4-11 acute myeloid leukemia cells; experiment: CellTiter-Glo 2.0 cell viability, MV-4-11; assay type: cell-based; details: Homo sapiens
Method: 2019 October; 94(4): 1813-1823.
Cell viability was assessed using the CellTiter-Glo 2.0 assay from Promega, which yields a signal proportional to the amount of ATP present in a cell population. Compounds were first dispensed into empty 96-well flat-bottom tissue culture-treated plates (Corning) using an Echo550. MV4-1 cells were diluted to a density of 0.1 million cells per ml, pipetted onto the compounds at a density of 1,000 cells per well for U937 and 3,000 cells per well for MV4-11, mixed, and incubated for 3 days at 37° C. with 5% C02. After incubating, 5 μl of cells from each well were added to 5 μl of CellTiter-Glo 2.0 reagent in a384-well white ProxiPlate (PerkinElmer), incubated for 20 minutes at ambient temperature, and luminescence was analyzed on an EnSpire plate reader. Graphing and regression analysis was performed in Graphpad Prism.

U251 = experiment: NCI 60 five-dose screen U251; assay type: cell-based; details: Homo sapiens, U-251, five-dose
K-562 = experiment: NCI 60 five-dose screen K-562; assay type: cell-based; details: Homo sapiens, K562, five-dose
[2] = read-out: LC50 (the source's name) (converted)
[3] = read-out: LC50 (the source's name)

## FC(F)(F)c1cc2c(Cl)ncnc2n1CCN1CCCCC1 [NUCC-0226679]
IGROV1
  GI50: 2.95 µM
  IC50: 4.37 µM
  IC (TGI): 10.2 µM
IGROV1; [2]
  CC50: 38 µM
RXF 393
  GI50: 15.5 µM
  IC50: 45.7 µM
  IC (TGI): 40.7 µM
RXF 393; [2]
  CC50: ≥ 100 µM
HS 578T
  GI50: 16.6 µM
  IC50: 100 µM
  IC (TGI): 60.3 µM
HS 578T; [3]
  CC50: ≥ 100 µM
OVCAR-5
  GI50: 100 µM
  IC50: 100 µM
  IC (TGI): 100 µM
OVCAR-5; [2]
  CC50: ≥ 100 µM
MOLT-4
  GI50: 10.5 µM
  IC50: 25.1 µM
  IC (TGI): 55 µM
MOLT-4; [3]
  CC50: ≥ 100 µM
MDA-MB-231/ATCC
  GI50: 5.5 µM
  IC50: 14.5 µM
  IC (TGI): 19.5 µM
MDA-MB-231/ATCC; [2]
  CC50: 50.1 µM
DU-145
  GI50: 30.2 µM
  IC50: 50.1 µM
  IC (TGI): 100 µM
DU-145; [2]
  CC50: ≥ 100 µM
HOP-62
  GI50: 38 µM
  IC50: 100 µM
  IC (TGI): 100 µM
HOP-62; [2]
  CC50: ≥ 100 µM
M14
  GI50: 12.9 µM
  IC50: 22.4 µM
  IC (TGI): 33.1 µM
M14; [2]
  CC50: 87.1 µM
UACC-257
  GI50: 11.7 µM
  IC50: 25.1 µM
  IC (TGI): 30.2 µM
UACC-257; [2]
  CC50: 77.6 µM
MALME-3M
  GI50: 19.1 µM
  IC50: 63.1 µM
  IC (TGI): 55 µM
MALME-3M; [2]
  CC50: ≥ 100 µM
HCT-116
  GI50: 4.9 µM
  IC50: 6.03 µM
  IC (TGI): 20.4 µM
HCT-116; [2]
  CC50: 67.6 µM
SR; Homo sapiens
  GI50: 3.31 µM
  IC50: 6.17 µM
SR; Homo sapiens, read-out: LC50 (the source's name)
  CC50: ≥ 100 µM
SR
  TGI: 4.58 −log[M]
SF-539
  GI50: 17 µM
  IC50: 31.6 µM
  IC (TGI): 36.3 µM
SF-539; [2]
  CC50: 75.9 µM
NCI-H23
  GI50: 13.8 µM
  IC50: 28.2 µM
  IC (TGI): 38.9 µM
NCI-H23; [2]
  CC50: ≥ 100 µM
TK-10
  GI50: 100 µM
  IC50: 100 µM
  IC (TGI): 100 µM
TK-10; [2]
  CC50: ≥ 100 µM
UACC-62
  GI50: 12 µM
  IC50: 22.4 µM
  IC (TGI): 30.2 µM
UACC-62; [2]
  CC50: 75.9 µM
KM12
  GI50: 29.5 µM
  IC50: 41.7 µM
  IC (TGI): 100 µM
KM12; [2]
  CC50: ≥ 100 µM
HCC-2998
  GI50: 4.07 µM
  IC50: 8.32 µM
  IC (TGI): 14.5 µM
HCC-2998; [2]
  CC50: 40.7 µM
SK-MEL-28
  GI50: 15.8 µM
  IC50: 30.2 µM
  IC (TGI): 38 µM
SK-MEL-28; [2]
  CC50: 89.1 µM
SNB-19
  GI50: 15.1 µM
  IC50: 28.2 µM
  IC (TGI): 30.9 µM
SNB-19; [2]
  CC50: 64.6 µM
[1]; MV4-11, 72 h, MV-4-11 cells, 3 days, CellTiter-Glo 2.0, read-out: IC50 (uM) [Cell Type: MV-4-11]
  IC50: 0.675 µM
[1]; MV4-11, bound stated in text, read-out: IC50 against MV-4-11 acute myeloid leukemia cells
  IC50: < 2 µM
U251
  GI50: 14.1 µM
  IC50: 22.9 µM
  IC (TGI): 34.7 µM
U251; [2]
  CC50: 87.1 µM
K-562
  GI50: 2.88 µM
  IC50: 3.63 µM
  IC (TGI): 100 µM
K-562; [3]
  CC50: ≥ 100 µM

— patent publication US20240109903A1, “SUBSTITUTED HETEROCYCLES FOR TREATING CANCER” (Northwestern University, priority 2022, published 2024)
